Results on 11 compounds are retold here after patent US20240067651A1 (Biohaven Therapeutics Ltd., priority 2019, published 2024).

One data set is described as follows: Plasma Stability. The format is in vitro ADME, human. The settings on record: % remaining @ 1 h. The procedure, abridged: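 Compounds incubated at 1 μM in fresh human plasma for 1 hour at 37° C, then protein-precipitated with acetonitrile/formic acid containing internal standard. Remaining parent measured by LC-MS/MS in triplicate, expressed as percent of control remaining.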

Data set [1] in a line: Stability in Simulated Gastric Fluid (SGF). It counts as in vitro ADME. Further details: key: % parent compound remaining relative to 0-minute sample. The settings on record: % remaining @ 1 h. The method in brief:
(§1)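 Compound at 2 μg/mL final was incubated at 37° C with orbital shaking in SGF containing pepsin (pH 1.2) or SIF containing pancreatin (pH 6.8), sampled from 0 to 60 minutes. Parent remaining was measured by LC-MS/MS relative to the 0-minute sample; half-life came from ln(% remaining) versus time when enough points existed.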

The nature of data set [2]: Stability in Simulated Intestinal Fluid (SIF). It counts as in vitro ADME. More on the design: key: % parent compound remaining relative to 0-minute sample. The settings on record: % remaining @ 1 h. The method in brief:
as §1

Data set [3] is described as follows: Caco-2 Permeability Assay. The format is in vitro ADME, human. The settings on record: human, Caco-2, pH 7.4. The procedure, abridged:
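Caco-2 monolayers cultured 21 days (TEER >600 […]); test article at 10 μM in HBSS/HEPES pH 7.4 transport medium, dosed apical or basolateral, ±Pgp inhibitor. Incubated 90 min at 37 °C; both compartments quantified by LC-MS/MS. Papp (A→B, B→A), efflux ratio and % recovery calculated.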

Turning to `CC(C)OCCn1c(SCOC(=O)[C@@H](Cc2ccccc2)NC(=O)OC(C)(C)C)nc(=O)c2c1ccn2COC(=O)[C@@H](Cc1ccccc1)NC(=O)OC(C)(C)C` [Example 306, {[5-({[(2R)-2-{[(tert-butoxy)carbonyl]amino}-3-phenylpropanoyl]oxy}methyl)-4-oxo-1-[2-(propan-2-yloxy)ethyl]-1H,4H,5H-pyrrolo[3,2-d]pyrimidin-2-yl]sulfanyl}methyl (2R)-2-{[(tert-butoxy)carbonyl]amino}-3-phenylpropanoate], the “human Plasma stability” value in the data set “Plasma Stability” is recorded as 72% @ 1 h. Moreover, in data set [1], the SGF was 41% @ 1 h. In data set [2], the SIF is reported as 1% @ 1 h. The Papp at 90 min, 10 µM in data set [3] was determined as 3.8 ×10⁻⁶ cm/s.

Regarding `CC(C)OCCn1c(=S)n(COC(=O)[C@@H](Cc2ccccc2)NC(=O)OC(C)(C)C)c(=O)c2c1ccn2COC(=O)[C@@H](Cc1ccccc1)NC(=O)OC(C)(C)C` [Example 307, [3-({[(2R)-2-{[(tert-butoxy)carbonyl]amino}-3-phenylpropanoyl]oxy}methyl)-4-oxo-1-[2-(propan-2-yloxy)ethyl]-2-sulfanylidene-1H,2H,3H,4H,5H-pyrrolo[3,2-d]pyrimidin-5-yl]methyl (2R)-2-{[(tert-butoxy)carbonyl]amino}-3-phenylpropanoate], in “Plasma Stability”, the “human Plasma stability” value turned out to be 99% @ 1 h. For the same compound, the SGF in data set [1] is given as 26% @ 1 h. Further, the SIF in data set [2] is recorded as 43% @ 1 h. Further, the apparent permeability coefficient (Papp) at 90 min, 10 µM in data set [3] amounted to 0.334 ×10⁻⁶ cm/s.

`CC(C)OCCn1c(=S)[nH]c(=O)c2c1ccn2COC(=O)[C@@H](N)Cc1ccccc1.O=C(O)C(F)(F)F` [Example 308, trifluoroacetic acid {4-oxo-1-[2-(propan-2-yloxy)ethyl]-2-sulfanylidene-1H,2H,3H,4H,5H-pyrrolo[3,2-d]pyrimidin-5-yl}methyl (2S)-2-amino-3-phenylpropanoate]: the “human Plasma stability” value in the data set “Plasma Stability” is recorded as 2.5% @ 1 h. Moreover, in data set [1], the SGF was 97% @ 1 h. Moreover, the SIF in data set [2] is on record as 44% @ 1 h. Further, the Papp at 90 min, 10 µM in data set [3] is less than 0.364 ×10⁻⁶ cm/s.

As for `CC(C)OCCn1c(SCOC(=O)[C@@H](N)Cc2ccccc2)nc(=O)c2c1ccn2COC(=O)[C@@H](N)Cc1ccccc1.O=C(O)C(F)(F)F.O=C(O)C(F)(F)F` [Example 309, bis(trifluoroacetic acid) {[5-({[(2S)-2-amino-3-phenylpropanoyl]oxy}methyl)-4-oxo-1-[2-(propan-2-yloxy)ethyl]-1H,4H,5H-pyrrolo[3,2-d]pyrimidin-2-yl]sulfanyl}methyl (2S)-2-amino-3-phenylpropanoate], the “human Plasma stability” value in the data set “Plasma Stability” was 5% @ 1 h. The SGF in data set [1] was 98% @ 1 h. Besides, the SIF in data set [2] is 86% @ 1 h. Further, the Papp at 90 min, 10 µM in data set [3] is less than 0.123 ×10⁻⁶ cm/s.

Regarding `CC(C)OCCn1c(=S)[nH]c(=O)c2c1ccn2COC(=O)[C@H](N)Cc1ccccc1.O=C(O)C(F)(F)F` [Example 311, trifluoroacetic acid {4-oxo-1-[2-(propan-2-yloxy)ethyl]-2-sulfanylidene-1H,2H,3H,4H,5H-pyrrolo[3,2-d]pyrimidin-5-yl}methyl (2R)-2-amino-3-phenylpropanoate], the “human Plasma stability” value in the data set “Plasma Stability” is 4% @ 1 h. For the same compound, the SGF in data set [1] is recorded as 98% @ 1 h. In data set [2], the SIF was 7% @ 1 h. This compound registered a Papp at 90 min, 10 µM in data set [3] of 5.44 ×10⁻⁶ cm/s.

For the compound `CC(C)OCCn1c(=S)n(COC(=O)[C@H](N)Cc2ccccc2)c(=O)c2c1ccn2COC(=O)[C@H](N)Cc1ccccc1.O=C(O)C(F)(F)F.O=C(O)C(F)(F)F` [Example 313, bis(trifluoroacetic acid) [3-({[(2R)-2-amino-3-phenylpropanoyl]oxy}methyl)-4-oxo-1-[2-(propan-2-yloxy)ethyl]-2-sulfanylidene-1H,2H,3H,4H,5H-pyrrolo[3,2-d]pyrimidin-5-yl]methyl (2R)-2-amino-3-phenylpropanoate], in the data set “Plasma Stability”, the “human Plasma stability” value is given as 99% @ 1 h. Moreover, in data set [1], the SGF is on record as 88% @ 1 h. Also, the SIF in data set [2] is on record as 51% @ 1 h. For the same compound, in data set [3], the Papp at 90 min, 10 µM is 0.49 ×10⁻⁶ cm/s.

In the case of `CC(C)C[C@H](NC(=O)OC(C)(C)C)C(=O)OCn1c(=O)c2c(ccn2COC(=O)[C@H](CC(C)C)NC(=O)OC(C)(C)C)n(CCOC(C)C)c1=S` [Example 316, [3-({[(2S)-2-{[(tert-butoxy)carbonyl]amino}-4-methylpentanoyl]oxy}methyl)-4-oxo-1-[2-(propan-2-yloxy)ethyl]-2-sulfanylidene-1H,2H,3H,4H,5H-pyrrolo [3,2-d]pyrimidin-5-yl]methyl (2S)-2-{[(tert-butoxy)carbonyl]amino}-4-methylpentanoate], the “human Plasma stability” value in “Plasma Stability” stood at 37%@ 1 h. Also, the SGF in data set [1] is given as 99%@ 1 h. For the same compound, in data set [2], the SIF is recorded as 6%@ 1 h. In data set [3], this compound gave a Papp at 90 min, 10 µM of 7.6 ×10⁻⁶ cm/s.

Take `CC(C)C[C@@H](NC(=O)OC(C)(C)C)C(=O)OCn1ccc2c1c(=O)[nH]c(=S)n2CCOC(C)C` [Example 317, {4-oxo-1-[2-(propan-2-yloxy)ethyl]-2-sulfanylidene-1H,2H,3H,4H,5H-pyrrolo[3,2-d]pyrimidin-5-yl}methyl (2R)-2-{[(tert-butoxy)carbonyl]amino}-4-methylpentanoate]: in the data set “Plasma Stability”, the “human Plasma stability” value came out at 99%@ 1 h. Also, the SGF in data set [1] is on record as 56%@ 1 h. For the same compound, in data set [2], the SIF is reported as 30%@ 1 h. In addition, the Papp at 90 min, 10 µM in data set [3] is 0.093 ×10⁻⁶ cm/s.

With `CC(C)C[C@@H](NC(=O)OC(C)(C)C)C(=O)OCSc1nc(=O)c2c(ccn2COC(=O)[C@@H](CC(C)C)NC(=O)OC(C)(C)C)n1CCOC(C)C` [Example 318, {[5-({[(2R)-2-{[(tert-butoxy)carbonyl]amino}-4-methylpentanoyl]oxy}methyl)-4-oxo-1-[2-(propan-2-yloxy)ethyl]-1H,4H,5H-pyrrolo[3,2-d]pyrimidin-2-yl]sulfanyl}methyl (2R)-2-{[(tert-butoxy)carbonyl]amino}-4-methylpentanoate], the “human Plasma stability” value in the data set “Plasma Stability” was determined as 85%@ 1 h. For the same compound, the SGF in data set [1] was 81%@ 1 h. Besides, the SIF in data set [2] is recorded as 2%@ 1 h. The Papp at 90 min, 10 µM in data set [3] stood at 25.4 ×10⁻⁶ cm/s.

As to `CC(C)C[C@@H](NC(=O)OC(C)(C)C)C(=O)OCn1c(=O)c2c(ccn2COC(=O)[C@@H](CC(C)C)NC(=O)OC(C)(C)C)n(CCOC(C)C)c1=S` [Example 319, [3-({[(2R)-2-{[(tert-butoxy)carbonyl]amino}-4-methylpentanoyl]oxy}methyl)-4-oxo-1-[2-(propan-2-yloxy)ethyl]-2-sulfanylidene-1H,2H,3H,4H,5H-pyrrolo[3,2-d]pyrimidin-5-yl]methyl (2R)-2-{[(tert-butoxy)carbonyl]amino}-4-methylpentanoate], in “Plasma Stability”, the “human Plasma stability” value is given as 42%@ 1 h. Besides, the SGF in data set [1] was 34%@ 1 h. In addition, the SIF in data set [2] is 0%@ 1 h. The same compound gave a Papp at 90 min, 10 µM in data set [3] of 10.5 ×10⁻⁶ cm/s.

Take `CC(C)C[C@H](N)C(=O)OCn1ccc2c1c(=O)[nH]c(=S)n2CCOC(C)C.O=C(O)C(F)(F)F` [Example 320, trifluoroacetic acid {4-oxo-1-[2-(propan-2-yloxy)ethyl]-2-sulfanylidene-1H,2H,3H,4H,5H-pyrrolo[3,2-d]pyrimidin-5-yl}methyl (2S)-2-amino-4-methylpentanoate]: the “human Plasma stability” value in “Plasma Stability” turned out to be 98%@ 1 h. Moreover, the SGF in data set [1] was 48%@ 1 h. Also, the SIF in data set [2] is reported as 42%@ 1 h. For the same compound, the Papp at 90 min, 10 µM in data set [3] was less than 0.259 ×10⁻⁶ cm/s.
